Assay results from US20250339409A1, “USES OF PAN BET INHIBITORS” (VYNE THERAPEUTICS INC., priority 2021, published 2025).
Where two headings read alike, the source gives them in different places.

Tested on: CXCL10, IL17α, IL22, IL36γ, CCL20, SerpinB4 gene expression in Th17 stimulated human skin
Assay: Th17 stimulated human skin explants, RT-qPCR of biomarkers
Type: cell-based
Conditions: for inhibition at 10 µM: Homo sapiens, calculated to Th17 stimulated control, three skin donors
Excerpt: Human skin biopsy tissue was stimulated to induce a Th17 immuno-phenotype using a method derived from Feghali-Bostwick et al. Induction of a Th17 phenotype in human skin—a mimic of dermal inflammatory diseases, Methods and Protocols, 2, 45 (2019). The pharmacodynamic assay described therein involves a similar paradigm to elicit a Th2 response and is used to evaluate the therapeutic potential of the active compounds (e.g., BETi1; and
Freshly excised healthy human skin tissue from abdominoplasties is defatted, cleaned and sectioned into 7 mm biopsies. The biopsies are placed in Transwell® inserts with the epidermis apical and exposed to air and the dermis submerged in media in the basal chamber. The biopsies are pre-treated overnight at 37° C., 5% CO2 with different compounds and controls added to the media in the basal chamber.
The next day, contents of the basal chamber is replaced with fresh media containing the test compound (listed below) and a stimulation cocktail for either Th2 inflammation (proprietary of service provider cocktail) or Th17 inflammation (mix of antibodies against CD3, CD28, IL-4, IFNγ and recombinant IL-1β, IL-6, IL-21, TGF-β). The biopsies are incubated at 37° C., 5% CO2 for a further 24 hrs.
A list of all the treatments is provided below: • 1. Untreated control (for both stimulations) • 2. Th2 stimulated control • 3. Th17 stimulated control • 4. Th2+BETia at 0.01, 0.04, 0.16, 0.63, 2.50, and 10 μM • 5. Th2+BETi1 at 0.01, 0.04, 0.16, 0.63, 2.50, and 10 μM • 6. Th2+Ruxolitinib at 0.01, 0.04, 0.16, 0.63, 2.50, and 10 μM • 7. Th2+betamethasone valerate 210 μM (equivalent to 0.01%) • 8. Th17+BETia at 10 μM • 9. Th17+BETi1 at 10 μM • 10. Th17+Ruxolitinib at 10 μM • 11. Th17+betamethasone valerate 210 μM (equivalent to 0.01%)
After harvesting, the biopsies are cut in half, and one half is homogenized and used for RNA extraction by standard methods and inflammatory pathways is assessed by RT-qPCR. The ability of BETi1 or BETia to inhibit the activity of up to six biomarkers per stimulation is reported as percent activity calculated to stimulated control and fold change in gene expression calculated to untreated control with respect to Th2 (IL4, IL13, IL31, CCL17, CCL26, CCL2) and Th17 (CXCL10, IL17α, IL22, IL36γ, CCL20, SerpinB4). Statistical analysis is performed on data sets from all 3 donors combined and compares the percent inhibition of each biomarker by each treatment calculated to its respective vehicle.
qPCR values were calculated using the relative quantification approach outlined by Livak, et al (2001) (Section 9, Reference 2). The Ct values (threshold cycle) defined as the fractional cycle number at which the amount of amplified target reaches a fixed threshold, were normalised to the Ct value of an internal biomarker or ‘housekeeping gene’ (GAPDH). The higher limit of detection was set at a Ct value of 40, and any target having not reached Ct by 40 cycles was set to this value. The delta Ct values (dt(Ct)) refers to the Ct of the gene of interest minus the Ct of the internal biomarker. The ddt(Ct) is the dt(Ct) value of the gene minus the average dt(Ct) value of the untreated samples. The ddt(Ct) is converted to power by the equation; =power(2,dt(Ct)). Fold change was calculated as ratio of the power of the gene of interest divided by the average power of the untreated samples. This normalizes the untreated samplers to a value of 1. For the comparison of multiple skin donors, the stimulated samples were normalized to 100% maximum activity (such to normalize variability between different skin donors). Percent activity was calculated as the percent increase or decrease in stimulation compared to the stimulated samples set at 100% maximum activity. Percent change was calculated as: Inhibition=(100−(avg % activity/stimulated)*100). Statistical analysis was performed using One-way ANOVA with Dunnett's Multiple Comparisons (non parametric). […]

Cn1cc(-c2cccc(O)c2Oc2ccccc2)c2cc[nH]c2c1=O [BETi1]
inhibition at 10 µM (read-out: % inhibition CXCL10): 95%
inhibition at 10 µM (read-out: % inhibition IL17α): 99.5%
inhibition at 10 µM (read-out: % inhibition IL36γ): 95%
inhibition of IL-17, IL-36 and CXCL10 release relative to vehicle control (Th17-stimulated human skin tissue): greater than 95%
